From the supplement of paper PMC11821682

Tests used:
[1] = test system: Danio rerio embryo; assay: BMC10 any morphological effect or mortality at 120 hpf; higher = less toxic
Procedure: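 ZBEscreen: dechorionated Tropical 5D zebrafish embryos were exposed from 4 hpf in 96-well plates (1% DMSO, 28 °C). All compounds were first tested at 100 µM; hits were retested at 0.005-100 µM. Morphology and mortality were scored at 120 hpf and fitted as BMC10 (3-parameter log-logistic, extra risk). The embryonic photomotor response at 24 hpf and the larval photomotor response at 120 hpf are given as lowest effect levels (K-S test, p<0.01). NA = not significant up to 100 µM; NT = not tested.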

[2] = test system: HL-60; assay: Cell Health Index (toxicity pseudo-probability over dose series) (index 0-1); higher = more cytotoxic / cell stress;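 also: HL-60 cells exposed 4 h at 37 °C to ten threefold dilutions spanning 5 nM to 100 µM, multiparametric flow cytometry features scored by machine-learning classification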

Cc1cnc(C(=O)N[C@H]2CCCCC/C=C\[C@@H]3C[C@@]3(C(=O)NS(=O)(=O)C3CC3)NC(=O)[C@@H]3C[C@@H](Oc4nc5ccccc5c5ccccc45)CN3C2=O)cn1 [Paritaprevir]
BMC10 any morphological effect or mortality [1]: > 100 µM
Cell Health Index [2]: 0.626

CC(C)Cc1ncc(Cc2ccccc2)[nH]c1=O [Pheleuin]
BMC10 any morphological effect or mortality [1]: > 100 µM
Cell Health Index [2]: 0.182

CS(=O)(=O)O.Cc1c(O)cccc1C(=O)N[C@@H](CSc1ccccc1)[C@H](O)CN1C[C@H]2CCCC[C@H]2C[C@H]1C(=O)NC(C)(C)C [Nelfinavir]
BMC10 any morphological effect or mortality [1]: > 100 µM
Cell Health Index [2]: 0.453

CCCCCCCCCCCCCCCCCCCCCCO [Docosanol]
BMC10 any morphological effect or mortality [1]: > 100 µM
Cell Health Index [2]: 0.266

Cc1ccc2c(=O)c3cccc(CC(=O)O)c3oc2c1C [Vadimezan]
BMC10 any morphological effect or mortality [1]: > 100 µM
Cell Health Index [2]: 0.169

Cc1nnc(C(C)C)n1[C@@H]1C[C@H]2CC[C@@H](C1)N2CC[C@H](NC(=O)C1CCC(F)(F)CC1)c1ccccc1 [Maraviroc]
BMC10 any morphological effect or mortality [1]: > 100 µM
Cell Health Index [2]: 0.155

CCO.C[C@H]1c2cccc(O)c2C(=O)C2=C(O)[C@]3(O)C(=O)C(C(N)=O)=C(O)[C@@H](N(C)C)C3[C@@H](O)C21.C[C@H]1c2cccc(O)c2C(=O)C2=C(O)[C@]3(O)C(=O)C(C(N)=O)=C(O)[C@@H](N(C)C)C3[C@@H](O)C21.Cl.Cl.O (some centres not stated) [Doxycycline]
BMC10 any morphological effect or mortality [1]: > 100 µM
Cell Health Index [2]: 0.591

CCCNC(=O)[C@H]1O[C@@H]1C(=O)N[C@H](C(=O)N1CCC[C@H]1C(=O)O)[C@@H](C)CC [CA-074]
BMC10 any morphological effect or mortality [1]: > 100 µM
Cell Health Index [2]: 0.179

Nc1nc(=O)c2ncn(CCC(CO)CO)c2[nH]1 [Penciclovir]
BMC10 any morphological effect or mortality [1]: > 100 µM
Cell Health Index [2]: 0.126

O[C@H]1[C@@]2([H])[C@](CC[C@]2([H])[C@@](O)(C)CC/C=C(C)/C)(C)[C@]3(C)CC[C@]4([H])[C@@](CC[C@H](O[C@]5([H])O[C@H](CO)[C@@H](O)[C@H](O)[C@H]5O)C4(C)C)(C)[C@@]3([H])C1 [20(R)-Ginsenoside Rh2]
BMC10 any morphological effect or mortality [1]: > 100 µM
Cell Health Index [2]: 0.227

CC1(C)O[C@H]2CC(=O)OC[C@]23[C@H]2CC[C@@]4(C)[C@H](c5ccoc5)OC(=O)[C@H]5O[C@]54[C@]2(C)C(=O)C[C@@H]13 [Limonin]
BMC10 any morphological effect or mortality [1]: > 100 µM
Cell Health Index [2]: 0.145

CC(C)[C@H](NC(=O)c1ccc2ccccc2n1)C(=O)N[C@@H](CC(=O)O)C(=O)COc1c(F)cccc1F [Q-VD-OPH]
BMC10 any morphological effect or mortality [1]: > 100 µM
Cell Health Index [2]: 0.221

C=C[C@H]1C[C@@]1(NC(=O)[C@@H]1C[C@@H]2CN1C(=O)[C@H](C(C)(C)C)NC(=O)O[C@@H]1C[C@H]1CCCCCc1nc3ccc(OC)cc3nc1O2)C(=O)NS(=O)(=O)C1CC1 [Grazoprevir]
BMC10 any morphological effect or mortality [1]: > 100 µM
Cell Health Index [2]: 0.532

CC(C)Nc1cccnc1N1CCN(C(=O)c2cc3cc(NS(C)(=O)=O)ccc3[nH]2)CC1.CS(=O)(=O)O [Delavirdine]
BMC10 any morphological effect or mortality [1]: > 100 µM
Cell Health Index [2]: 0.324

CC(=O)CCCCn1c(=O)c2c(ncn2C)n(C)c1=O [Pentoxifylline]
BMC10 any morphological effect or mortality [1]: > 100 µM
Cell Health Index [2]: 0.147

Cl.NCC(=O)CCC(=O)O [5-Aminolevulinic acid]
BMC10 any morphological effect or mortality [1]: > 100 µM
Cell Health Index [2]: 0.194

O=c1[nH]c(=O)n([C@H]2C[C@H](O)[C@@H](CO)O2)cc1/C=C/Br [Brivudine]
BMC10 any morphological effect or mortality [1]: > 100 µM
Cell Health Index [2]: 0.157

COC(=O)N[C@H](C(=O)N1CC2(CC2)C[C@H]1c1ncc(-c2ccc3c(c2)C(F)(F)c2cc(-c4ccc5nc([C@@H]6[C@H]7CC[C@H](C7)N6C(=O)[C@@H](NC(=O)OC)C(C)C)[nH]c5c4)ccc2-3)[nH]1)C(C)C [Ledipasvir]
BMC10 any morphological effect or mortality [1]: > 100 µM
Cell Health Index [2]: 0.231

O=C(O)[C@H]1O[C@@H](Oc2cc3oc(-c4ccccc4)cc(=O)c3c(O)c2O)[C@H](O)[C@@H](O)[C@@H]1O [Baicalin]
BMC10 any morphological effect or mortality [1]: > 100 µM
Cell Health Index [2]: 0.718

CC(C)(C)C(=O)OCOP(=O)(COCCn1cnc2c(N)ncnc21)OCOC(=O)C(C)(C)C [Adefovir dipivoxil]
BMC10 any morphological effect or mortality [1]: > 100 µM
Cell Health Index [2]: 0.258

OCC1=C[C@@H](O)[C@@H]2C=CO[C@@H](O[C@@H]3O[C@H](CO)[C@@H](O)[C@H](O)[C@H]3O)[C@H]12 [Aucubin]
BMC10 any morphological effect or mortality [1]: > 100 µM
Cell Health Index [2]: 0.304

CC(=O)N[C@@H](CC(C)C)C(=O)N[C@@H](CC(C)C)C(=O)N[C@H](C=O)CCCNC(=N)N.CC(=O)N[C@@H](CC(C)C)C(=O)N[C@@H](CC(C)C)C(=O)N[C@H](C=O)CCCNC(=N)N.O=S(=O)(O)O [Leupeptin]
BMC10 any morphological effect or mortality [1]: > 100 µM
Cell Health Index [2]: 0.184

Cc1c(O)c(=O)ccn1C [Deferiprone]
BMC10 any morphological effect or mortality [1]: > 100 µM
Cell Health Index [2]: 0.256

O=c1cc(-c2ccc(O)c(-c3c(O)cc(O)c4c(=O)cc(-c5ccc(O)cc5)oc34)c2)oc2cc(O)cc(O)c12 [Amentoflavone]
BMC10 any morphological effect or mortality [1]: > 100 µM
Cell Health Index [2]: 0.74

COc1cc2c(cc1Cc1cccc(Cl)c1F)c(=O)c(C(=O)O)cn2[C@H](CO)C(C)C [Elvitegravir]
BMC10 any morphological effect or mortality [1]: > 100 µM
Cell Health Index [2]: 0.339

Nc1nc(=O)n([C@@H]2CS(=O)[C@H](CO)O2)cc1F (some centres not stated) [Emtricitabine S-oxide]
BMC10 any morphological effect or mortality [1]: > 100 µM
Cell Health Index [2]: 0.188

COc1ccc(C[C@H]2COC(=O)[C@@H]2Cc2ccc(O[C@@H]3O[C@H](CO)[C@@H](O)[C@H](O)[C@H]3O)c(OC)c2)cc1OC [Arctiin]
BMC10 any morphological effect or mortality [1]: > 100 µM
Cell Health Index [2]: 0.192

O=c1c2cc(O)c(O)cc2oc2cc(O)c([C@@H]3O[C@H](CO)[C@@H](O)[C@H](O)[C@H]3O)c(O)c12 [Mangiferin]
BMC10 any morphological effect or mortality [1]: > 100 µM
Cell Health Index [2]: 0.26

Nc1ncnc2c1ncn2[C@@H]1O[C@H](CO)[C@@H](O)[C@@H]1O [Vidarabine]
BMC10 any morphological effect or mortality [1]: > 100 µM
Cell Health Index [2]: 0.234

CCNCc1nc2c(N)nc3ccccc3c2n1CC(C)(C)O [Gardiquimod]
BMC10 any morphological effect or mortality [1]: > 100 µM
Cell Health Index [2]: 0.172

O=C(O)CCCCCCCCCCCCCCCCCCCO [20-hydroxy Arachidic acid]
BMC10 any morphological effect or mortality [1]: > 100 µM
Cell Health Index [2]: 0.215

COC(=O)N[C@H](C(=O)N1CCC[C@H]1c1nc2cc([C@H]3CC[C@H](c4cc5nc([C@@H]6CCCN6C(=O)[C@@H](NC(=O)OC)[C@@H](C)OC)[nH]c5cc4F)N3c3cc(F)c(N4CCC(c5ccc(F)cc5)CC4)c(F)c3)c(F)cc2[nH]1)[C@@H](C)OC [Pibrentasvir]
BMC10 any morphological effect or mortality [1]: > 100 µM
Cell Health Index [2]: 0.268

CC1=CC(=O)/C(=C/c2ccc(O)c(O)c2)O1 [Inotilone]
BMC10 any morphological effect or mortality [1]: > 100 µM
Cell Health Index [2]: 0.76

CC(C)C[C@H](NC(=O)[C@H](CCc1ccccc1)NC(=O)CN1CCOCC1)C(=O)N[C@@H](Cc1ccccc1)C(=O)N[C@@H](CC(C)C)C(=O)[C@@]1(C)CO1 [Carfilzomib]
BMC10 any morphological effect or mortality [1]: > 100 µM
Cell Health Index [2]: 0.42

CCCCN(CCCC)CC(O)c1cc(Cl)cc2c1-c1ccc(Cl)cc1/C2=C/c1ccc(Cl)cc1 (configuration not stated) [Lumefantrine]
BMC10 any morphological effect or mortality [1]: > 100 µM
Cell Health Index [2]: 0.218

Cc1cn([C@H]2C[C@H](N=[N+]=[N-])[C@@H](CO)O2)c(=O)[nH]c1=O [Zidovudine]
BMC10 any morphological effect or mortality [1]: > 100 µM
Cell Health Index [2]: 0.17

NC(=O)NO [Hydroxyurea]
BMC10 any morphological effect or mortality [1]: > 100 µM
Cell Health Index [2]: 0.161

C[C@@H]1O[C@@H](O[C@@H]2[C@@H](O)[C@H](OCCc3ccc(O)c(O)c3)O[C@H](CO)[C@H]2OC(=O)/C=C/c2ccc(O)c(O)c2)[C@H](O)[C@H](O)[C@H]1O [Verbascoside]
BMC10 any morphological effect or mortality [1]: > 100 µM
Cell Health Index [2]: 0.843

Cn1c(Cn2ccc(C(F)(F)F)c(Oc3cc(Cl)cc(C#N)c3)c2=O)n[nH]c1=O [Doravirine]
BMC10 any morphological effect or mortality [1]: > 100 µM
Cell Health Index [2]: 0.198

O=C(/C=C/c1ccc(O)c(O)c1)O[C@@H](C(=O)O)[C@@H](OC(=O)/C=C/c1ccc(O)c(O)c1)C(=O)O [Chicoric acid]
BMC10 any morphological effect or mortality [1]: > 100 µM
Cell Health Index [2]: 0.468

N#C[C@@]1(c2ccc3c(N)ncnn23)O[C@H](CO)[C@@H](O)[C@H]1O
BMC10 any morphological effect or mortality [1]: > 100 µM
Cell Health Index [2]: 0.185

CCOC(=O)CN[C@@H](C(=O)N1CC[C@H]1C(=O)NCc1ccc(C(=N)NO)cc1)C1CCCCC1 [Ximelagatran]
BMC10 any morphological effect or mortality [1]: > 100 µM
Cell Health Index [2]: 0.193

CC(C)OC(=O)[C@H](C)N[P@](=O)(CO[C@H](C)Cn1cnc2c(N)ncnc21)Oc1ccccc1 [GS-7340]
BMC10 any morphological effect or mortality [1]: > 100 µM
Cell Health Index [2]: 0.202

CO[C@H]1[C@H](O)[C@@H](O)[C@@H](O)[C@H](O)[C@@H]1O [D-Pinitol]
BMC10 any morphological effect or mortality [1]: > 100 µM
Cell Health Index [2]: 0.174

O=C(/C=C/c1ccc(O)c(O)c1)O[C@@H]1C[C@@](O)(C(=O)O)C[C@@H](O)[C@@H]1O [5-Caffeoylquinic acid]
BMC10 any morphological effect or mortality [1]: > 100 µM
Cell Health Index [2]: 0.295

CC(=O)N[C@@H]([C@@H](O)[C@H](O)[C@H](O)CO)[C@@H](O)CC(=O)C(=O)O [Aceneuramic acid]
BMC10 any morphological effect or mortality [1]: > 100 µM
Cell Health Index [2]: 0.172
